According to patent publication US20240400584A1, “COMPOUNDS AND METHODS FOR MODULATING SPLICING” (REMIX THERAPEUTICS INC., priority 2021, published 2024):
pIC50: −log10 of the molar value.

How the values were obtained:
MYB [1] = experiment: Gene panel canonical junction qPCR assay, MYB CJ mRNA (Table 7); type: cell-based; details: Homo sapiens, read-out: MYB CJ mRNA decrease IC50
In short: (§1)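 Canonical-junction transcript decrease reported as IC50 from a 4-parameter logistic fit of percentage response, derived from 2^(−ΔΔCt) versus housekeeper (GAPDH/GUSB/PPIA) and DMSO control using preset ΔCt windows. Readout by cDNA synthesis and qPCR with exon-junction-overlapping probesets in compound-treated K562 or A673 cells.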

Target C = experiment: Gene panel canonical junction qPCR assay, Target C CJ mRNA (Table 7); type: cell-based, human; details: Homo sapiens, read-out: Target C CJ mRNA decrease IC50
In short: as §1

HTT [2] = experiment: RT-qPCR splicing assay, HTT AJ/CJ mRNA; type: cell-based, human; details: Homo sapiens, A673 or K562 cells; for pIC50: decrease in canonical junction mRNA; for AC50: increase in alternative junction mRNA
In short: (§2)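 Splicing switch scored as change in CJ and AJ isoform levels, by RT-qPCR on lysates of A673 or K562 cells dosed 24 h (top concentration 10 uM, DMSO at most 0.25%). ΔΔCt relative to DMSO wells was converted to RQ and then to percentage response.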

MYB [3] = experiment: RT-qPCR splicing assay, MYB AJ/CJ mRNA; type: cell-based; details: Homo sapiens, A673 or K562 cells, 24 hours; for pIC50: decrease in canonical junction mRNA; for AC50: increase in alternative junction mRNA
In short: as §2

SMN2 = experiment: Gene panel canonical junction qPCR assay, SMN2 CJ mRNA (Table 7); type: cell-based; details: Homo sapiens, read-out: SMN2 CJ mRNA decrease IC50
In short: as §1

HTT [4] = experiment: Gene panel canonical junction qPCR assay, HTT CJ mRNA (Table 7); type: cell-based, human; details: Homo sapiens, read-out: HTT CJ mRNA decrease IC50
In short: as §1

pIC50 (MYB [1]) | pIC50 (Target C) | pIC50 (HTT [2]; 24 h) | pIC50 (MYB [3]) | pIC50 (SMN2) | pIC50 (HTT [4]) | Structure (SMILES) | AC50 (HTT [2]; 24 h) [nM] | AC50 (MYB [3]) [nM] | pIC50 (HTT [2]; 24 hours) | AC50 (HTT [2]; 24 hours) [nM]
6.00 to 7.00 | 6.00 to 7.00 | > 7.00 | 6.00 to 7.00 | > 7.00 | > 7.00 | COc1cc(-c2ccc3c(c2)COc2nc(N4CC[C@@H](NC(C)(C)C)C4)ncc2-3)cnn1 [Compound 278] | 100 to 1000 | 100 to 1000 | – | –
5.00 to 6.00 | 5.00 to 6.00 | 6.00 to 7.00 | 5.00 to 6.00 | 6.00 to 7.00 | 6.00 to 7.00 | COc1cc(-c2ccc3c(c2)COc2nc(N4CC[C@H](NC(C)(C)C)C4)ncc2-3)cnn1 [Compound 279] | 100 to 1000 | 1000 to 10000 | – | –
5.00 to 6.00 | 6.00 to 7.00 | 6.00 to 7.00 | 5.00 to 6.00 | 6.00 to 7.00 | 6.00 to 7.00 | COc1cc(-c2ccc3c(c2)COc2nc(N4CCC(NC5CCC5)C4)ccc2-3)cnn1 (stereo not shown) [Compound 280, N-cyclobutyl-1-[8-(6-methoxypyridazin-4-yl)-6H-isochromeno[3,4-b]pyridin-3-yl]pyrrolidin-3-amine] | 100 to 1000 | 100 to 1000 | – | –
6.00 to 7.00 | 6.00 to 7.00 | > 7.00 | 6.00 to 7.00 | > 7.00 | > 7.00 | CCC(C)(C)NC1CCN(c2ccc3c(n2)OCc2cc(-c4cnnc(OC)c4)ccc2-3)C1 (stereo not shown) [Compound 281, 1-[8-(6-methoxypyridazin-4-yl)-6H-isochromeno[3,4-b]pyridin-3-yl]-N-(2-methylbutan-2-yl)pyrrolidin-3-amine] | < 100 | 100 to 1000 | – | –
6.00 to 7.00 | 6.00 to 7.00 | 6.00 to 7.00 | 6.00 to 7.00 | 6.00 to 7.00 | 6.00 to 7.00 | COc1cc(-c2ccc3c(c2)COc2nc(N4CCNCC4)ccc2-3)cnn1 [Compound 282, 3-methoxy-5-[3-(piperazin-1-yl)-6H-isochromeno[3,4-b]pyridin-8-yl] pyridazine] | 100 to 1000 | 100 to 1000 | – | –
5.00 to 6.00 | 5.00 to 6.00 | 6.00 to 7.00 | 5.00 to 6.00 | 6.00 to 7.00 | 6.00 to 7.00 | COc1cc(-c2ccc3c(c2)COc2nc(N4CCN5CCCC5C4)ccc2-3)cnn1 (stereo not shown) [Compound 283] | 1000 to 10000 | 1000 to 10000 | – | –
< 5.00 | < 5.00 | < 5.00 | < 5.00 | 5.00 to 6.00 | < 5.00 | CCc1cc(-c2ccc3c(c2)COc2nc(N4CCC(NC(C)(C)C)C4)ccc2-3)cnn1 (stereo not shown) [Compound 284, N-tert-butyl-1-[8-(6-ethylpyridazin-4-yl)-6H-isochromeno[3,4-b]pyridin-3-yl]pyrrolidin-3-amine] | > 10000 | > 10000 | – | –
< 5.00 | < 5.00 | 5.00 to 6.00 | < 5.00 | 5.00 to 6.00 | 5.00 to 6.00 | COc1cc(-c2ccc3c(c2)COc2nc(N4CCC(N)CC4)ccc2-3)cnn1 [Compound 288] | 1000 to 10000 | > 10000 | – | –
6.00 to 7.00 | 5.00 to 6.00 | 6.00 to 7.00 | 6.00 to 7.00 | > 7.00 | 6.00 to 7.00 | COc1cc(-c2ccc3c(c2)COc2cc(N4CCC(NC(C)(C)C)C4)ncc2-3)cnn1 (stereo not shown) [Compound 289, N-(tert-butyl)-1-(8-(6-methoxypyridazin-4-yl)-6H-isochromeno [4,3-c]pyridin-3-yl)pyrrolidin-3-amine] | 1000 to 10000 | 1000 to 10000 | – | –
< 5.00 | 5.00 to 6.00 | < 5.00 | < 5.00 | 5.00 to 6.00 | < 5.00 | COc1cnnc(-c2ccc3c(c2)COc2nc(N4CCC(NC(C)(C)C)C4)ccc2-3)c1 (stereo not shown) [Compound 292] | > 10000 | > 10000 | – | –
6.00 to 7.00 | 6.00 to 7.00 | 6.00 to 7.00 | 6.00 to 7.00 | > 7.00 | 6.00 to 7.00 | COc1cc(-c2ccc3c(c2)COc2nc(N4CCN[C@@H](C5CC5)C4)ccc2-3)cnn1 [Compound 296] | 100 to 1000 | 100 to 1000 | – | –
6.00 to 7.00 | 6.00 to 7.00 | > 7.00 | 6.00 to 7.00 | > 7.00 | > 7.00 | COc1cc(-c2ccc3c(c2)COc2nc(N4CCN[C@H](C5CC5)C4)ccc2-3)cnn1 [Compound 297] | 100 to 1000 | 100 to 1000 | – | –
5.00 to 6.00 | 5.00 to 6.00 | 6.00 to 7.00 | 5.00 to 6.00 | 6.00 to 7.00 | 6.00 to 7.00 | COc1cc(-c2ccc3c(c2)COc2nc(OC4CC(C)(C)NC(C)(C)C4)ncc2-3)cnn1 [Compound 299] | 100 to 1000 | 1000 to 10000 | – | –
< 5.00 | 5.00 to 6.00 | 5.00 to 6.00 | < 5.00 | 6.00 to 7.00 | 5.00 to 6.00 | CNC1CCN(c2ccc3c(n2)OCc2cc(-c4cnnc(OC)c4)ccc2-3)CC1 [Compound 300, 1-[8-(6-methoxypyridazin-4-yl)-6H-isochromeno[3,4-b]pyridin-3-yl]-N-methylpiperidin-4-amine] | 1000 to 10000 | > 10000 | – | –
< 5.00 | < 5.00 | < 5.00 | < 5.00 | < 5.00 | < 5.00 | COc1cc(-c2ccc3c(c2)COc2nc(N4CCC(NC(C)(C)C)CC4)ccc2-3)cnn1 [Compound 302] | > 10000 | > 10000 | – | –
6.00 to 7.00 | 6.00 to 7.00 | > 7.00 | 6.00 to 7.00 | > 7.00 | > 7.00 | COc1cc(-c2ccc3c(c2)COc2nc(N4CCN[C@@H](C(C)C)C4)ccc2-3)cnn1 [Compound 303] | 100 to 1000 | 100 to 1000 | – | –

Structure (SMILES) | pIC50 (MYB [1]) | pIC50 (Target C) | pIC50 (HTT [2]; 24 h) | pIC50 (MYB [3]) | pIC50 (SMN2) | pIC50 (HTT [4]) | AC50 (HTT [2]; 24 h) [nM] | AC50 (MYB [3]) [nM] | pIC50 (HTT [2]; 24 hours) | AC50 (HTT [2]; 24 hours) [nM]
CN(c1ncc2c(n1)OCc1cc(-c3cn[nH]c3)ccc1-2)[C@@H]1C[C@H]2CC[C@@H](C1)N2 [Compound 294] | 6.00 to 7.00 | 6.00 to 7.00 | > 7.00 | 6.00 to 7.00 | 6.00 to 7.00 | > 7.00 | 100 to 1000 | 1000 to 10000 | – | –
COc1cc(-c2ccc3c(c2)COc2nc(N(C)[C@@H]4C[C@H]5CC[C@@H](C4)N5)ncc2-3)cnn1 [Compound 295] | 6.00 to 7.00 | 6.00 to 7.00 | > 7.00 | 6.00 to 7.00 | > 7.00 | > 7.00 | < 100 | 1000 to 10000 | – | –
COc1cc(-c2ccc3c(c2)COc2nc(O[C@@H]4C[C@H]5CC[C@@H](C4)N5)ncc2-3)cnn1 [Compound 298] | 5.00 to 6.00 | 5.00 to 6.00 | 6.00 to 7.00 | 5.00 to 6.00 | > 7.00 | 6.00 to 7.00 | 100 to 1000 | 100 to 1000 | – | –
COc1cc(-c2ccc3c(c2)COc2nc(N4CCC(NC(C)C)CC4)ccc2-3)cnn1 [Compound 301, N-isopropyl-1-[8-(6-methoxypyridazin-4-yl)-6H-isochromeno[3,4-b]pyridin-3-yl] piperidin-4-amine] | 5.00 to 6.00 | 5.00 to 6.00 | – | 5.00 to 6.00 | 5.00 to 6.00 | 5.00 to 6.00 | – | 1000 to 10000 | 5.00 to 6.00 | 100 to 1000
